“Also recorded” adds a separate entry of the source.
Tests used:
plasma PTH [1] = assay: In vivo PTH lowering after IV bolus in isoflurane-anesthetized normal Sprague Dawley rats; design: species or system rat; conditions: for PTH-lowering activity in normal rats: 0.5 mg/kg single IV administration
Procedure, shortened: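 Peptides were given as a 0.5 mg/kg IV bolus to normal Sprague Dawley rats kept under isoflurane throughout, with saline bolus controls.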

plasma PTH [2] = assay: 1K1C rat model of acute renal insufficiency, plasma PTH after dosing; type: in vivo; conditions: 1K1C rats
From the text: A rat model of acute renal insufficiency (also referred to as the 1K1C model) was developed to simulate the pathology of SHPT associated with end stage renal disease. […] The development of this model allowed for the further characterization of described compounds in the context of a subject with renal dysfunction and elevated PTH. Typical baseline PTH levels in this model averaged ˜450 pg/mL.
The ensuing ischemia/reperfusion (I/R) damage to the remaining kidney results in significant necrosis and renal failure. Serum creatinine levels were elevated for over 24-48 hours following I/R insult (data not shown). […] By 48 hours post-I/R, plasma PTH levels were elevated to ˜450 pg/mL (˜5 fold increase) and in some instances reach as high as ˜1200 pg/mL. This reproducible increase in serum creatinine and PTH provided a robust model that mimics the physiology seen ESRD patients.
The protocol used in this study is as follows. Male Sprague Dawley rats were purchased from Charles River Laboratories (Hollister, Calif.; requested purchase weight 250-275 g). […] Animals were maintained in a temperature-controlled environment with a constant 12 hours light/12 hours dark cycle and free access to food and water at all times. All experimental procedures with animals were performed according to IACUC guidelines.
General anesthesia was induced and maintained by intraperitoneal (IP) injection of sodium pentobarbital (5.2%, 0.4 mL/rat). For animals that received 45 minutes of renal ischemia an additional IP injection of sodium pentobarbital (5.2%, 0.1 mL/rat) was given to maintain the anesthetic plane. Blood sampling for PTH measurements following administration of compounds in normal rats was done under continuous isoflurane anesthesia.
For model development studies, the left femoral vein was cannulated with a PE-10 tube for blood drawing. Both kidneys were exposed via a laparotomy. A right nephrectomy was performed after the right renal pedicle and ureter were ligated with double 2-0 silk sutures. After confirmation of non-bleeding in the right pedicle, the left renal artery was carefully dissected and clamped with a micro vascular clip to induce left renal global ischemia. Renal ischemia was confirmed by observation of a global white-grey color change (blanching). The abdominal incision was temporarily covered with gauze to help maintain the temperature of the abdominal organs. After 45 minutes, the designated period of ischemia, the clip was removed and left renal artery flow was considered restored upon observation of a global restoration of red color. The abdominal incision was closed in layers with 2-0 silk sutures. The animal was then recovered from anesthesia. Physiological parameters including body temperature (36-37.5° C.) and body weight were measured throughout the procedure. Body temperature was monitored and maintained using a heat pad rectal probe feedback system.
Approximately 48 hours after the 1K1C surgery (I/R injury), animals were dosed with various compounds to measure effects on plasma PTH and calcium. In most cases, test articles were administered by IV infusion (infusion time 5, 10 or 30 minutes) although in some studies compounds were administered by IV bolus or subcutaneous (SC) bolus injection. For drug administration and blood draws, animals were anesthetized with isoflurane.

plasma histamine = conditions: rat, in vivo
plasma PTH [3] = assay: Micropore-facilitated transdermal delivery, plasma PTH in rats; conditions: CD hairless rats, derma roller microporation, 10% solution in reservoir, FIG. 11
[4] = 3 mg/kg 30-minute IV infusion, FIG. 1

fold increase in histamine level relative to pre-dose (plasma histamine) | SMILES | PTH-lowering activity in normal rats (plasma PTH [1]) | % PTH reduction of baseline at 1 hour post IV administration of 0.5 mg/kg compound (plasma PTH [1]; Table 2, isoflurane-anesthetized normal rats, 0.5 mg/kg IV, 1 hour) | 0.5 mg/kg IV bolus % PTH AUC of saline control (plasma PTH [1]; Table 2, normal rats, AUC 1-4 h) | PTH-lowering activity (plasma PTH [2]; 1 mg/kg 30-minute IV infusion, over 24 hours, FIG. 9) | histamine response after IV bolus (plasma histamine; iv) | duration of decreased PTH (plasma PTH [1]; 0.5 mg/kg IV bolus, normal rats, FIG. 5) | % PTH reduction of baseline at 1 hour post IV admin. of 0.5 mg/kg compound (plasma PTH [1]; Table 1, isoflurane-anesthetized normal rats, 0.5 mg/kg IV, 1 hour) | 0.5 mg/kg IV bolus % PTH AUC of saline control (plasma PTH [1]; Table 1, normal rats, PTH at 1, 2, 3, 4 h, AUCcmpd treated/AUCsaline control*100) | 0.5 mg/kg IV bolus % PTH AUC of saline control (plasma PTH [1]; Table 3, normal rats, AUC 1-4 h) | PTH reduction from baseline 16 hours after dosing (plasma PTH [2]; 1 mg/kg 30-minute IV infusion) | initial fall of PTH levels from baseline (plasma PTH [2]; 1 mg/kg 30-minute IV infusion) | initial drop of PTH, level as % of baseline (plasma PTH [2]; 1 mg/kg SC bolus) | duration of reduced plasma PTH levels (plasma PTH [2]; 1 mg/kg, SC bolus or 30-minute IV infusion (both routes)) | reduced PTH levels from baseline twenty-four hours after dosing (plasma PTH [2]; 1 mg/kg, either route (SC bolus or IV infusion)) | PTH-lowering efficacy and duration of action (plasma PTH [2]; [4]) | mean PTH reduction at the 24 hour time point (plasma PTH [2]; [4]) | duration of PTH reduction from baseline (plasma PTH [3])
– | CC(=O)N[C@H](CS)C(=O)N[C@H](C)C(=O)N[C@H](CCCNC(=N)N)C(=O)N[C@H](CCCNC(=N)N)C(=O)N[C@H](CCCNC(=N)N)C(=O)N[C@H](C)C(=O)N[C@H](CCCNC(=N)N)C(N)=O [SEQ ID NO: 26, Ac-carrrar-NH2] | decreased PTH blood concentration to a non-detectable level for up to 4 hours after dosing; also recorded: very active | 0% | 1% | activity that is equivalent to Ac-crrrrrr-NH2 | – | – | – | – | – | – | – | – | – | – | – | – | –
7 fold | CC(=O)N[C@H](CS)C(=O)N[C@H](CCCNC(=N)N)C(=O)N[C@H](CCCNC(=N)N)C(=O)N[C@H](CCCNC(=N)N)C(=O)N[C@H](CCCNC(=N)N)C(=O)N[C@H](CCCNC(=N)N)C(=O)N[C@H](CCCNC(=N)N)C(N)=O [SEQ ID NO: 6, Ac-crrrrrr-NH2] | below the detection limit or essentially zero | – | – | – | returned to baseline levels 15 minutes later | at least four hours | 4% | 0% | 3% | ~80% | 80-90% | ~40% | over 24 hours | 40-60% | increased efficacy as well as the duration of action | ~40% | ~4 h

Source: patent US10280198B2, “Therapeutic agents for reducing parathyroid hormone levels” (KAI PHARMACEUTICALS, INC., priority 2009, dated 2019)
